The values below come from ChEMBL document CHEMBL1126316, “Non-peptide fibrinogen receptor antagonists. 1. Discovery and design of exosite inhibitors” (J Med Chem, 1992).

Test [1] concerns the target T1, Integrin alpha-V/beta-3 (Homo sapiens, UniProt P05106+P06756). Put plainly: Inhibition of HUVEC attachment to human fibrinogen.
The target in another test is Integrin alpha-5/beta-1 (Homo sapiens, UniProt P05556+P08648). Kind of test: Inhibition of HUVEC attachment to human fibronectin.
Test [2] deals with T1, Integrin alpha-V/beta-3. Put plainly: Inhibition of HUVEC attachment to human vitronectin.

SMILES strings stand for the structures.

T1 sequence (P05106 27-788 limits assumed): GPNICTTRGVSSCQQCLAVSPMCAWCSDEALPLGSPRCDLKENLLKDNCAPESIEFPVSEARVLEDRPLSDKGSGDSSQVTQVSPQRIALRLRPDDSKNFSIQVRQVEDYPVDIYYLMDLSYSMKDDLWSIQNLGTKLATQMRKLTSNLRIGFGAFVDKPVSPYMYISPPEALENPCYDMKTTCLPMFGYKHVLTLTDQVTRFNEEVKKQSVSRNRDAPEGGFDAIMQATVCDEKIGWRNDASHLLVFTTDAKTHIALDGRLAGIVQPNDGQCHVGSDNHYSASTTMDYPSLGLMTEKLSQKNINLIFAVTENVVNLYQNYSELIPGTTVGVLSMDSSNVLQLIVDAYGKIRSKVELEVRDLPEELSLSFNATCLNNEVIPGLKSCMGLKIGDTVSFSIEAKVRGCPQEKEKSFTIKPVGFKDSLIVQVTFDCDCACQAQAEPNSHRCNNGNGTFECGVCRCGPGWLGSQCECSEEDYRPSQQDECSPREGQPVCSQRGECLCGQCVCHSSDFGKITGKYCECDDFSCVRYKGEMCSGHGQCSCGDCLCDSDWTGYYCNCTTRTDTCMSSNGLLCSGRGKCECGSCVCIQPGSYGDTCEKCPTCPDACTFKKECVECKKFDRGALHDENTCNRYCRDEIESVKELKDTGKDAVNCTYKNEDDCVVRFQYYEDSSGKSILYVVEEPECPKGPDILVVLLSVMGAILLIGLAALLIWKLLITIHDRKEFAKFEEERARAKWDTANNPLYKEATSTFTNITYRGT
T1 sequence (P06756 31-889 limits assumed): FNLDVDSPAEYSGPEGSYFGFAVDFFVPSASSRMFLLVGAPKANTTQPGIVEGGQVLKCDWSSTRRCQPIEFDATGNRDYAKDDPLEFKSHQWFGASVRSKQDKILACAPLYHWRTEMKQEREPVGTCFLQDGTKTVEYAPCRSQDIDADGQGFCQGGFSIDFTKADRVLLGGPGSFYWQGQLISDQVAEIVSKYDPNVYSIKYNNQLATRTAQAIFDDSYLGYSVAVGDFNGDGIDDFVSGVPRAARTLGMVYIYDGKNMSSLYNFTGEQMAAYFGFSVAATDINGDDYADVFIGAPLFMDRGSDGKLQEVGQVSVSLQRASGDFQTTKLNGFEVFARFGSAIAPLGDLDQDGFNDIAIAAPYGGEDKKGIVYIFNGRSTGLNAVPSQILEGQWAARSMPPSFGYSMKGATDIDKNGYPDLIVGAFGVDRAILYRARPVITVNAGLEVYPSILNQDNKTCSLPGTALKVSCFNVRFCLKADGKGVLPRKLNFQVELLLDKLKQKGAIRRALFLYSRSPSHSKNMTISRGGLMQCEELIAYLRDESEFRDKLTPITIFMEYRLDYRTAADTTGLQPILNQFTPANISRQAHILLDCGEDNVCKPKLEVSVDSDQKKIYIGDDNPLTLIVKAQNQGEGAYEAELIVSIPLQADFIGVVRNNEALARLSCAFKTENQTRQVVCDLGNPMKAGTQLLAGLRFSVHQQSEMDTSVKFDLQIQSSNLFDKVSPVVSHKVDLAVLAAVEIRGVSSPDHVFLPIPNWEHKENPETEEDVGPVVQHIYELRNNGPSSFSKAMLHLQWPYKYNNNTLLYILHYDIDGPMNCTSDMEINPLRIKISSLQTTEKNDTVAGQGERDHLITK
T1 sequence (P06756 891-1048 limits assumed): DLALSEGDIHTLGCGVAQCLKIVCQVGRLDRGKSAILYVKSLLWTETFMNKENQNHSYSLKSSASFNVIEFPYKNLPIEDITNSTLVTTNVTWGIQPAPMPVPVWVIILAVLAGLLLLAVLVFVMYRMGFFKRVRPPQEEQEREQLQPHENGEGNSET
Integrin alpha-5/beta-1, sequence (P05556 21-798 limits assumed): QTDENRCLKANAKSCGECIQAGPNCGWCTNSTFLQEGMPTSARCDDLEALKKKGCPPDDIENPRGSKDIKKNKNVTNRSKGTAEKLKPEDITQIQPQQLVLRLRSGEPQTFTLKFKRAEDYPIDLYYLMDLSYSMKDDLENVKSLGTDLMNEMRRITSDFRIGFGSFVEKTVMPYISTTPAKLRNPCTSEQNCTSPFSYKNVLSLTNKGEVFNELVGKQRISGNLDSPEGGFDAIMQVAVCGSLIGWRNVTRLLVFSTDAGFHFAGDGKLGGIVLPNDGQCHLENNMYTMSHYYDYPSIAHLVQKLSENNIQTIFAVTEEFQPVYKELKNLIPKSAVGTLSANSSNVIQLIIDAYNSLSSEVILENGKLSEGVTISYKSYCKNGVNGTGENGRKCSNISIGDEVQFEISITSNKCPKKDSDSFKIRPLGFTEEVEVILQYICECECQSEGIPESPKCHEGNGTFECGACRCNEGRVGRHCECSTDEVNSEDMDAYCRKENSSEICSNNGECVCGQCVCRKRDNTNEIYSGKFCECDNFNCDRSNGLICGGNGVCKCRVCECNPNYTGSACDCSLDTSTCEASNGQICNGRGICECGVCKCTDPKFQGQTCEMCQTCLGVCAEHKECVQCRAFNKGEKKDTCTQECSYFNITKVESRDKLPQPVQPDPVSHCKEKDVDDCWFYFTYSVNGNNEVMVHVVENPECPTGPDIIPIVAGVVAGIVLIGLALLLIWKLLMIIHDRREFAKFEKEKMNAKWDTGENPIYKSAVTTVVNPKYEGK
Integrin alpha-5/beta-1, sequence (P08648 42-894 limits assumed): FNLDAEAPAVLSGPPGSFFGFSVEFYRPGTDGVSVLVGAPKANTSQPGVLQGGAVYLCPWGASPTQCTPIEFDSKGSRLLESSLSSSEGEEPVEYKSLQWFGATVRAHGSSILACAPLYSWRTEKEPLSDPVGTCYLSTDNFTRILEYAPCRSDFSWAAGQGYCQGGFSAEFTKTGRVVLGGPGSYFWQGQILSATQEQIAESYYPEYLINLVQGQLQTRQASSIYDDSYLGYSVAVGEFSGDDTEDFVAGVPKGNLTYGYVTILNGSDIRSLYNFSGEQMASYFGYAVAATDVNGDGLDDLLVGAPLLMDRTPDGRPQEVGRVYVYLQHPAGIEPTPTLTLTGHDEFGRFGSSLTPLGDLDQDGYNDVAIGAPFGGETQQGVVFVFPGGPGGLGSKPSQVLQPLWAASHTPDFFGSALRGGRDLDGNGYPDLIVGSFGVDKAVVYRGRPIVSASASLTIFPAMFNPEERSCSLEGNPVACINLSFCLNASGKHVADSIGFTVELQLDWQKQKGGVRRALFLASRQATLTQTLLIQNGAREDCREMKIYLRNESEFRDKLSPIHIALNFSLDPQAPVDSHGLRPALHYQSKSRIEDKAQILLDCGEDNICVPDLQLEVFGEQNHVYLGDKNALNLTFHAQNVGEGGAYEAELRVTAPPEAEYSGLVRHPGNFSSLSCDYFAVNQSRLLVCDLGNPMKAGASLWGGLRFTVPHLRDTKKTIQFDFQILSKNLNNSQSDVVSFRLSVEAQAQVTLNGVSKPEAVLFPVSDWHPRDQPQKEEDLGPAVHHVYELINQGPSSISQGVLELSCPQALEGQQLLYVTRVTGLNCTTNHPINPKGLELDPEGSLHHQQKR
Integrin alpha-5/beta-1, sequence (P08648 895-1049 limits assumed): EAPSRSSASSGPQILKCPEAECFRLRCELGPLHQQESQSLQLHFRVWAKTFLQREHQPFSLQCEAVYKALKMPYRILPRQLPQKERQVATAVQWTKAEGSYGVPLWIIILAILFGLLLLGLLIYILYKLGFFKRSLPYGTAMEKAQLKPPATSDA

Consider `CCCCS(=O)(=O)N[C@@H](Cc1ccc(OCCCCC2CCNCC2)cc1)C(=O)O` [TIROFIBAN], for which the IC50 at Integrin alpha-V/beta-3 [1] is 260 µM; against Integrin alpha-5/beta-1, greater than 300 µM; against Integrin alpha-V/beta-3 [2] it was 100 µM.
